The source of these data is patent publication US20240409585A1, “MACROCYCLIC IMMUNOMODULATORS” (priority 2021, published 2024).

Bridge positions count the residues as written; N and C are the ends. Square brackets hold non-standard residues; d marks the D form. Peptide text beside a SMILES is read from it. * marks the point of attachment. ξ: configuration not given here. Phe(4-(4-F-Ph)) = N[C@@H](Cc1ccc(-c2ccc(F)cc2)cc1)C(=O)O; Tyr(3-NO2) = N[C@@H](Cc1ccc(O)c([N+](=O)[O-])c1)C(=O)O; Phe(4-COOH) = N[C@@H](Cc1ccc(C(=O)O)cc1)C(=O)O; Bip = N[C@@H](Cc1ccc(-c2ccccc2)cc1)C(=O)O; Phe(3-Me) = Cc1cccc(C[C@H](N)C(=O)O)c1; NMeY = CN[C@@H](Cc1ccc(O)cc1)C(=O)O; Val(3-OH) = CC(C)(O)[C@H](N)C(=O)O; aIle = CC[C@@H](C)[C@H](N)C(=O)O; 4Pal = N[C@@H](Cc1ccncc1)C(=O)O; Cha = N[C@@H](CC1CCCCC1)C(=O)O; Ala(CN) = N#CC[C@H](N)C(=O)O; Pip = O=C(O)[C@@H]1CCCCN1; Carboxymethyl = O=C(O)C*; NMeA = CN[C@@H](C)C(=O)O; Orn = NCCC[C@H](N)C(=O)O; Dab = NCC[C@H](N)C(=O)O; Dap = NC[C@H](N)C(=O)O; ξV = CC(C)C(N)C(=O)O

A word on the IC50: it is the concentration at which inhibition is half-maximal.

T1 sequence (Q15116 25-288): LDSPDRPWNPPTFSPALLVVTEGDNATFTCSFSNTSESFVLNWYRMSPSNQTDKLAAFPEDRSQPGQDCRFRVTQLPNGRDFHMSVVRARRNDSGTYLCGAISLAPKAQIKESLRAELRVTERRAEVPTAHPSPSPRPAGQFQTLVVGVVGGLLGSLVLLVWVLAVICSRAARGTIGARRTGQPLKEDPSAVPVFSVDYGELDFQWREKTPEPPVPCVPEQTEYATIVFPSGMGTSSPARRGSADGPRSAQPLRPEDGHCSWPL

The assay addresses T1, PE-labeled human PD-L1-Ig binding to Jurkat cell line over-expressing human PD-1 (Jurkat-PD-1) (Homo sapiens, UniProt Q15116).
T1 construct: expressed in transfected cells; host or cells: Jurkat
The experiment in a line: Jurkat-PD-1 Cell Binding High-Content Screening Assay (CBA): Method 1. The settings on record: Jurkat-hPD-1 cells, PE-labeled PD-L1-Ig 20 nM final; read-out: Jurkat HPDL1 PD1 IC50 (uM) (Method 1).
For `Cc1cccc(C[C@@H]2NC(=O)[C@H](CC(=O)O)NC(=O)[C@H](Cc3ccc(OCC(=O)O)cc3)NC(=O)[C@H](CN)NC(=O)CSC[C@@H](C(N)=O)NC(=O)[C@H](CO)NC(=O)[C@H](C(C)C)NC(=O)[C@H](CC3CCCCC3)NC(=O)[C@H](CCN)NC(=O)[C@@H](CC(C)C)NC(=O)[C@@H]3CCCCN3C(=O)[C@H](Cc3ccc(OCC(=O)O)cc3)NC(=O)[C@H](Cc3ccc(-c4ccccc4)cc3)NC(=O)[C@H](Cc3ccc(OCC(=O)O)cc3)NC2=O)c1` [Compound 1892] ({CH2CO}-[Dap]Y(Carboxymethyl)D[Phe(3-Me)]Y(Carboxymethyl)[Bip]Y(Carboxymethyl)[Pip][dL][Dab][Cha]VSC-NH2; thioether N-14), the IC50 is 0.06 µM.

As for `CC[C@@H](C)[C@H]1NC(=O)[C@H](C)N(C)C(=O)[C@H](CCCNC(=N)N)NC(=O)[C@H](Cc2ccc(-c3ccccc3)cc2)NC(=O)[C@H](C(C)C)NC(=O)[C@H](Cc2c[nH]c3ccccc23)NC(=O)[C@H](CC(=O)O)NC(=O)[C@H](Cc2ccc(O)cc2)NC(=O)[C@H](Cc2ccccc2)NC(=O)CSC[C@@H](C(=O)N[C@@H](C)C(N)=O)NC(=O)[C@H]([C@@H](C)O)NC(=O)[C@H](C(C)C)NC(=O)[C@H](CC(C)C)NC(=O)[C@H](CCCNC(=N)N)NC1=O` [Compound 1066] ({CH2CO}-FYDWV[Bip]R[NMeA][dI]RLVTCA-NH2; thioether N-14), the IC50 worked out at 0.79 µM.

As for `CC(C)C[C@@H]1NC(=O)[C@H](CCN)NC(=O)[C@@H](CC(C)C)NC(=O)[C@H](C)N(C)C(=O)[C@H](Cc2cnc[nH]2)NC(=O)[C@H](Cc2ccc(-c3ccccc3)cc2)NC(=O)[C@H](C(C)C)NC(=O)[C@H](Cc2c[nH]c3ccccc23)NC(=O)[C@H](CC(=O)O)NC(=O)[C@H](Cc2ccc(O)cc2)NC(=O)[C@H](CC(N)=O)NC(=O)CSC[C@@H](C(=O)N[C@@H](C)C(N)=O)NC(=O)[C@H]([C@@H](C)O)NC(=O)[C@H](C(C)C)NC1=O` [Compound 1302] ({CH2CO}-NYDWV[Bip]H[NMeA][dL][Dab]LVTCA-NH2; thioether N-14), the IC50 is 0.02 µM. As for `CC(C)C[C@@H]1NC(=O)[C@H](CCCN)NC(=O)[C@@H](CC(C)C)NC(=O)[C@H](C)N(C)C(=O)[C@H](CCCNC(=N)N)NC(=O)[C@H](Cc2ccc(-c3ccccc3)cc2)NC(=O)[C@H](C(C)C)NC(=O)[C@H](Cc2c[nH]c3ccccc23)NC(=O)[C@H](CC(=O)O)NC(=O)[C@H](Cc2ccc(C(=O)O)cc2)NC(=O)[C@H](Cc2cnc[nH]2)NC(=O)CSC[C@@H](C(=O)N[C@@H](C)C(N)=O)NC(=O)[C@H]([C@@H](C)O)NC(=O)[C@H](C(C)C)NC1=O` [Compound 1149] ({CH2CO}-H[Phe(4-COOH)]DWV[Bip]R[NMeA][dL][Orn]LVTCA-NH2; thioether N-14), the IC50 came out at 0.07 µM. With `CC(C)C[C@@H]1NC(=O)[C@H](CCN)NC(=O)[C@@H](CC(C)C)NC(=O)[C@H](C)N(C)C(=O)[C@H](CCCNC(=N)N)NC(=O)[C@H](Cc2ccc(-c3ccc(F)cc3)cc2)NC(=O)[C@H](C(C)C)NC(=O)[C@H](Cc2c[nH]c3ccccc23)NC(=O)[C@H](CC(=O)O)NC(=O)[C@H](Cc2ccc(O)cc2)NC(=O)[C@H](CC(N)=O)NC(=O)CSC[C@@H](C(=O)N[C@@H](C)C(N)=O)NC(=O)[C@H]([C@@H](C)O)NC(=O)[C@H](C(C)C)NC1=O` [Compound 1229] ({CH2CO}-NYDWV[Phe(4-(4-F-Ph))]R[NMeA][dL][Dab]LVTCA-NH2; thioether N-14) the figure was 0.13 µM. The value for `CC(C)C[C@@H]1NC(=O)[C@H](CCN)NC(=O)[C@@H](CC(C)C)NC(=O)[C@H](C)N(C)C(=O)[C@H](C(C)C)NC(=O)[C@H](Cc2ccc(-c3ccccc3)cc2)NC(=O)[C@H](C(C)C)NC(=O)[C@H](Cc2c[nH]c3ccccc23)NC(=O)[C@H](CC(=O)O)NC(=O)[C@H](Cc2ccc(OCC(=O)O)cc2)NC(=O)[C@H](CC(N)=O)NC(=O)CSC[C@@H](C(=O)N[C@@H](C)C(N)=O)NC(=O)[C@H]([C@@H](C)O)NC(=O)[C@H](C(C)C)NC1=O` [Compound 1377] ({CH2CO}-NY(Carboxymethyl)DWV[Bip]V[NMeA][dL][Dab]LVTCA-NH2; thioether N-14) was 0.02 µM; that for `CC[C@@H](C)[C@@H]1NC(=O)[C@H](Cc2ccc(-c3ccccc3)cc2)NC(=O)[C@H](CC#N)NC(=O)[C@H](Cc2c[nH]c3ccccc23)NC(=O)[C@H](CC(=O)O)NC(=O)[C@H](Cc2ccc(C(=O)O)cc2)NC(=O)[C@H](Cc2ccc(OCC(=O)O)cc2)NC(=O)CSC[C@@H](C(=O)N[C@@H](CCCCN)C(N)=O)NC(=O)[C@H](CO)NC(=O)C(C(C)C)NC(=O)[C@H](CC(C)C)NC(=O)[C@H](CC(N)=O)NC(=O)[C@@H](CC(C)C)NC(=O)[C@H](C)N(C)C1=O` (stereo partly drawn) [Compound 2102] ({CH2CO}-Y(Carboxymethyl)[Phe(4-COOH)]DW[Ala(CN)][Bip][aIle][NMeA][dL]NL[ξV]SCK-NH2; thioether N-14) was 0.19 µM; that for `Cc1cccc(C[C@@H]2NC(=O)[C@H](CC(=O)O)NC(=O)[C@H](Cc3ccc(OCC(=O)O)cc3)NC(=O)[C@H](Cc3ccncc3)NC(=O)CSC[C@@H](C(=O)N[C@@H](CCN)C(N)=O)NC(=O)[C@H](CO)NC(=O)[C@H](C(C)(C)O)NC(=O)[C@H](CC3CCCCC3)NC(=O)[C@H](CCN)NC(=O)[C@@H](CC(C)C)NC(=O)[C@H](Cc3ccc(O)cc3)N(C)C(=O)[C@H](Cc3ccc(OCC(=O)O)cc3)NC(=O)[C@H](Cc3ccc(-c4ccccc4)cc3)NC(=O)[C@H](Cc3ccc(OCC(=O)O)cc3)NC2=O)c1` [Compound 1835] ({CH2CO}-[4Pal]Y(Carboxymethyl)D[Phe(3-Me)]Y(Carboxymethyl)[Bip]Y(Carboxymethyl)[NMeY][dL][Dab][Cha][Val(3-OH)]SC[Dab]-NH2; thioether N-14) was 0.11 µM.

Take `CC(C)C[C@@H]1NC(=O)[C@H](CCN)NC(=O)[C@@H](CC(C)C)NC(=O)[C@H](C)N(C)C(=O)[C@H](CCCNC(=N)N)NC(=O)[C@H](Cc2ccc(-c3ccccc3)cc2)NC(=O)[C@H](C(C)C)NC(=O)[C@H](Cc2c[nH]c3ccccc23)NC(=O)[C@H](CC(=O)O)NC(=O)[C@H](Cc2ccc(O)c([N+](=O)[O-])c2)NC(=O)[C@H](Cc2ccccc2)NC(=O)CSC[C@@H](C(=O)N[C@@H](C)C(N)=O)NC(=O)[C@H]([C@@H](C)O)NC(=O)[C@H](C(C)C)NC1=O` [Compound 1145] ({CH2CO}-F[Tyr(3-NO2)]DWV[Bip]R[NMeA][dL][Dab]LVTCA-NH2; thioether N-14): the IC50 is 0.02 µM.

With `CC(C)C[C@@H]1NC(=O)[C@H](CCCNC(=N)N)NC(=O)[C@@H](CC(C)C)NC(=O)[C@H](C)N(C)C(=O)[C@H](CCCNC(=N)N)NC(=O)[C@H](Cc2ccc(-c3ccccc3)cc2)NC(=O)[C@H](C(C)C)NC(=O)[C@H](Cc2c[nH]c3ccccc23)NC(=O)[C@H](CC(=O)O)NC(=O)[C@H](Cc2ccc(OCC(=O)O)cc2)NC(=O)[C@H](Cc2ccccc2)NC(=O)CSC[C@@H](C(=O)N[C@@H](C)C(N)=O)NC(=O)[C@H]([C@@H](C)O)NC(=O)[C@H](C(C)C)NC1=O` [Compound 1094] ({CH2CO}-FY(Carboxymethyl)DWV[Bip]R[NMeA][dL]RLVTCA-NH2; thioether N-14), the IC50 came to 0.77 µM.
